Target: T1, human PAH with the R408W mutation (A375 R408W cells) (Homo sapiens, UniProt P00439, R408W)
T1 construct: expressed in transfected cells
T1 sequence (P00439 1-452 R408W): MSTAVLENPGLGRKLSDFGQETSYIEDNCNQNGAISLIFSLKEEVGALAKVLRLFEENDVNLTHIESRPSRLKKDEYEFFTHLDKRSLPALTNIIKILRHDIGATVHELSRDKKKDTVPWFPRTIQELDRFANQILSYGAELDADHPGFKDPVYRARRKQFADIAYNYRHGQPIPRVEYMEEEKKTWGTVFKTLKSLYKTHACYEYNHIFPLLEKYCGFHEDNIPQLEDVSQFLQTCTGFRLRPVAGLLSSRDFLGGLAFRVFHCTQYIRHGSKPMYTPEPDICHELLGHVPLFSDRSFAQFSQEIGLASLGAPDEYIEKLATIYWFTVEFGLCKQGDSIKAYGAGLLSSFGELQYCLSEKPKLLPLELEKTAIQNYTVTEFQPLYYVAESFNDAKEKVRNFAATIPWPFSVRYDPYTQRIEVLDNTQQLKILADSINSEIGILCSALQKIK
Experiment: Cell Based Phenylalanine Flux Assay
Settings: 24 hrs with compound, then 20 μM sepiapterin and 800 μM 13C9,15N-Phenylalanine for 4 hours, 13C-Tyrosine by LC-MS, average where tested multiple times
Protocol: Cells expressing R408W PAH were made by transducing A375 cells with lentivirus encoding human PAH with the R408W mutation in pLVX-Puro, then selecting with puromycin until stable cell lines were generated. A375 R408W cells were seeded into 96 well plates in DMEM+10% FBS at a density of 40,000 cells/well one hour prior to compound addition. Compounds were resuspended in DMSO, and 2-fold serial dilutions were performed to generate a 10-point dose curve. Compounds were added to plated cells in a total volume of 100 μl, and a final DMSO concentration of 0.5%. Each compound was tested in duplicate. Following compound addition, cells were placed in a 5% CO2, 37° C. tissue culture incubator for 24 hrs. After the incubation period, 20 μM sepiapterin and 800 μM 13C9,15N-Phenylalanine were added. After 4 hours, cell media was removed. An aliquot of 10 μl of cell media was combined with 200 μl of extraction buffer (80% acetonitrile/20% H2O) for each well. Determination of ^13C-Tyrosine concentration was assessed by liquid chromatography mass spectrometry.
Specific compounds disclosed herein were tested in the foregoing assay and they were determined to have an AC50 according to the following scores: (A) less than or equal to 0.500 μM, (B) greater than 0.500 and less than […], (C) greater than or equal to 1.000 and less than 5.000 μM, (D) greater than or equal to 5.000 μM, (E) no fit, and (NT) not tested, as shown below. Where a compound was tested multiple times, the average value of the tests is reported.

[1] = A375 cells expressing R408W PAH

SMILES | AC50 (A375 R408W cells) [nM] | AC50 [1] [nM]
Cc1ccc2oc([C@H]3c4nc[nH]c4CCN3C(=O)c3nnc(-c4ccn(C(F)F)n4)o3)nc2c1 [Example 696, (R)-(5-(1-(difluoromethyl)-1H-pyrazol-3-yl)-1,3,4-oxadiazol-2-yl)(4-(5-methylbenzo[d]oxazol-2-yl)-6,7-dihydro-1H-imidazo[4,5-c]pyridin-5(4H)-yl)methanone] | 1000 to 5000 | 
O=C(c1oc(N2CCC(F)CC2)nc1C(F)F)N1CCc2[nH]cnc2[C@@H]1c1nc2cccc(F)c2o1 [Example 675, (R)-(4-(difluoromethyl)-2-(4-fluoropiperidin-1-yl)oxazol-5-yl)(4-(7-fluorobenzo[d]oxazol-2-yl)-6,7-dihydro-1H-imidazo[4,5-c]pyridin-5(4H)-yl)methanone] | ≤ 500 | 
O=C(c1ccnn1C1CC1)N1CCc2[nH]cnc2[C@H]1c1nc2ccccc2o1 [Example 725, (S)-(4-(benzo[d]oxazol-2-yl)-6,7-dihydro-1H-imidazo[4,5-c]pyridin-5(4H)-yl)(1-cyclopropyl-1H-pyrazol-5-yl)methanone] | ≤ 500 | 
Nc1cn2ncc(C(=O)N3CCc4[nH]cnc4[C@H]3c3nc4cc(F)ccc4o3)c2cc1Cl [Example 177, (S)-(6-amino-5-chloropyrazolo[1,5-a]pyridin-3-yl)(4-(5-fluorobenzo[d]oxazol-2-yl)-6,7-dihydro-1H-imidazo[4,5-c]pyridin-5(4H)-yl)methanone] | ≤ 500 | 
Cn1ccc(-c2nc(C(F)(F)F)c(C(=O)N3CCc4[nH]cnc4[C@H]3c3nc4cc(F)ccc4o3)o2)n1 [Example 787, (S)-(4-(5-fluorobenzo[d]oxazol-2-yl)-6,7-dihydro-1H-imidazo[4,5-c]pyridin-5(4H)-yl)(2-(1-methyl-1H-pyrazol-3-yl)-4-(trifluoromethyl)oxazol-5-yl)methanone] | ≤ 500 | 
CC(C)(c1nc(C(F)F)c(C(=O)N2CCc3[nH]cnc3C2c2nc3cc(F)ccc3o2)o1)S(C)(=O)=O (stereo not shown) |  | 1000 to 5000
O=C(c1ccnn1C(F)F)N1CCc2[nH]cnc2[C@H]1c1nc2ccccc2o1 [Example 563, (S)-(4-(benzo[d]oxazol-2-yl)-6,7-dihydro-1H-imidazo[4,5-c]pyridin-5(4H)-yl)(1-(difluoromethyl)-1H-pyrazol-5-yl)methanone] | ≤ 500 | 
O=C(c1ccnn1C1CC1)N1CCc2[nH]cnc2[C@@H]1c1nc2cccc(F)c2o1 [Example 728, (R)-(1-cyclopropyl-1H-pyrazol-5-yl)(4-(7-fluorobenzo[d]oxazol-2-yl)-6,7-dihydro-1H-imidazo[4,5-c]pyridin-5(4H)-yl)methanone] | ≥ 5000 | 
O=C(c1nnc(-c2cn[nH]c2)o1)N1CCc2[nH]cnc2C1c1nc2c(F)cccc2o1 (stereo not shown) |  | 1000 to 5000
CC(O)c1nc(Cl)c(C(=O)N2CCc3[nH]cnc3[C@@H]2c2nc3cc(F)ccc3o2)o1 (single isomer, unassigned) [Example 234] | 1000 to 5000 | 
CC(O)c1nc(Cl)c(C(=O)N2CCc3[nH]cnc3[C@H]2c2nc3cc(F)ccc3o2)o1 (single isomer, unassigned) [Example 236] | 500 to 1000 | 
O=C(c1ccnn1CC(F)F)N1CCc2[nH]cnc2[C@H]1c1nc2c(F)cccc2o1 [Example 850, (S)-(1-(2,2-difluoroethyl)-1H-pyrazol-5-yl)(4-(4-fluorobenzo[d]oxazol-2-yl)-6,7-dihydro-1H-imidazo[4,5-c]pyridin-5(4H)-yl)methanone] | 1000 to 5000 | 
Cn1cnc(-c2nc(C(F)F)c(C(=O)N3CCc4[nH]cnc4[C@@H]3c3nc4cccc(F)c4o3)o2)c1 [Example 891, (R)-(4-(difluoromethyl)-2-(1-methyl-1H-imidazol-4-yl)oxazol-5-yl)(4-(7-fluorobenzo[d]oxazol-2-yl)-1,4,6,7-tetrahydro-5H-imidazo[4,5-c]pyridin-5-yl)methanone] | 1000 to 5000 | 
O=C(c1cnc(-c2ccccn2)o1)N1CCc2[nH]cnc2[C@@H]1c1nc2cc(F)ccc2o1 [Example 12, (R)-(4-(5-fluorobenzo[d]oxazol-2-yl)-6,7-dihydro-1H-imidazo[4,5-c]pyridin-5(4H)-yl)(2-(pyridin-2-yl)oxazol-5-yl)methanone] | 1000 to 5000 | 
CC(C)(O)c1nc(Br)c(C(=O)N2CCc3[nH]cnc3[C@@H]2c2nc3ccc(F)cc3o2)o1 [Example 250, (R)-(4-bromo-2-(2-hydroxypropan-2-yl)oxazol-5-yl)(4-(6-fluorobenzo[d]oxazol-2-yl)-6,7-dihydro-1H-imidazo[4,5-c]pyridin-5(4H)-yl)methanone] | ≥ 5000 | 
CC(C)(O)c1nc(C2CC2)c(C(=O)N2CCc3[nH]cnc3[C@H]2c2nc3cc(F)ccc3o2)o1 [Example 557, (S)-(4-cyclopropyl-2-(2-hydroxypropan-2-yl)oxazol-5-yl)(4-(5-fluorobenzo[d]oxazol-2-yl)-6,7-dihydro-1H-imidazo[4,5-c]pyridin-5(4H)-yl)methanone] | ≤ 500 | 
Cc1ccc2oc([C@H]3c4nc[nH]c4CCN3C(=O)c3oc(-c4cn(C)cn4)nc3C(F)F)nc2c1 [Example 783, (R)-(4-(difluoromethyl)-2-(1-methyl-1H-imidazol-4-yl)oxazol-5-yl)(4-(5-methylbenzo[d]oxazol-2-yl)-6,7-dihydro-1H-imidazo[4,5-c]pyridin-5(4H)-yl)methanone] | ≤ 500 | 
Cn1cncc1-c1nc(C(F)(F)F)c(C(=O)N2CCc3[nH]cnc3[C@H]2c2nc3cc(F)ccc3o2)o1 [Example 791, (S)-(4-(5-fluorobenzo[d]oxazol-2-yl)-6,7-dihydro-1H-imidazo[4,5-c]pyridin-5(4H)-yl)(2-(1-methyl-1H-imidazol-5-yl)-4-(trifluoromethyl)oxazol-5-yl)methanone] | 500 to 1000 | 
O=C(c1nnc(-c2ccccn2)o1)N1CCc2[nH]cnc2[C@H]1c1nc2ccc(F)c(F)c2o1 [Example 546, (S)-(4-(6,7-difluorobenzo[d]oxazol-2-yl)-6,7-dihydro-1H-imidazo[4,5-c]pyridin-5(4H)-yl)(5-(pyridin-2-yl)-1,3,4-oxadiazol-2-yl)methanone] | 500 to 1000 | 
Cn1ncnc1C(=O)N1CCc2[nH]cnc2C1c1nc2cc(F)ccc2o1 (stereo not shown) |  | 1000 to 5000
O=C(c1cnn2cc(CN3CCOCC3)ccc12)N1CCc2[nH]cnc2C1c1nc2cc(F)ccc2o1 (stereo not shown) |  | ≥ 5000
CC(C)(O)c1nc(C(F)F)c(C(=O)N2CCc3[nH]cnc3[C@@H]2c2nc3c(Br)cccc3o2)o1 [Example 432, (R)-(4-(4-bromobenzo[d]oxazol-2-yl)-6,7-dihydro-1H-imidazo[4,5-c]pyridin-5(4H)-yl)(4-(difluoromethyl)-2-(2-hydroxypropan-2-yl)oxazol-5-yl)methanone] | ≤ 500 | 
CN1CCN(c2ccc3c(C(=O)N4CCc5[nH]cnc5[C@@H]4c4nc5cc(F)ccc5o4)cnn3c2)CC1(C)C [Example 140, (R)-(4-(5-fluorobenzo[d]oxazol-2-yl)-6,7-dihydro-1H-imidazo[4,5-c]pyridin-5(4H)-yl)(6-(3,3,4-trimethylpiperazin-1-yl)pyrazolo[1,5-a]pyridin-3-yl)methanone] | ≥ 5000 | 
Cn1cc(-c2ccc3c(C(=O)N4CCc5[nH]cnc5[C@@H]4c4nc5cc(F)ccc5o4)cnn3c2)cn1 [Example 72, (R)-(4-(5-fluorobenzo[d]oxazol-2-yl)-6,7-dihydro-1H-imidazo[4,5-c]pyridin-5(4H)-yl)(6-(1-methyl-1H-pyrazol-4-yl)pyrazolo[1,5-a]pyridin-3-yl)methanone] | ≥ 5000 | 
Cn1nc(C(F)(F)F)nc1C(=O)N1CCc2[nH]cnc2C1c1nc2ccc(F)cc2o1 (stereo not shown) |  | 1000 to 5000

Source: US20250171437A1 (Agios Pharmaceuticals,Inc., priority 2022, published 2025)
